These results are taken from ChEMBL document CHEMBL4834428 (J Med Chem, 2021).

Experiment [1] deals with T1, NAD-dependent protein deacetylase sirtuin-2 (Homo sapiens, UniProt Q8IXJ6).
T1 sequence (Q8IXJ6 whole entry): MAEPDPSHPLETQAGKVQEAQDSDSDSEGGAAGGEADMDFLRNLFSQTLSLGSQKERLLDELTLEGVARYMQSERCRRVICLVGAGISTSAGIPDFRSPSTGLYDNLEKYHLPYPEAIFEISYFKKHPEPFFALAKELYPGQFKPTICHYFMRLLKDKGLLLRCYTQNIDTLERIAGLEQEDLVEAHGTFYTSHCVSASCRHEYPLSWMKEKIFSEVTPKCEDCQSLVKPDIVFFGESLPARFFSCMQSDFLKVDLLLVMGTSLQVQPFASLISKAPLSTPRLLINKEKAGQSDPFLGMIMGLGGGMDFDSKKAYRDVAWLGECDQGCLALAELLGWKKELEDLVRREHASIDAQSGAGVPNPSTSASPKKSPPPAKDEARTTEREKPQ
Briefly: Inhibition of His6-tagged/TEV fused SIRT2 (unknown origin) expressed in Escherichia coli BL21 (DE3) preincubated for 15 mins followed by NAD+ addition and measured after 30 mins by FLucK529Ac based luminescence assay.

Experiment [2] addresses T2, NAD-dependent protein deacetylase sirtuin-3, mitochondrial (Homo sapiens, UniProt Q9NTG7).
T2 sequence (Q9NTG7 whole entry): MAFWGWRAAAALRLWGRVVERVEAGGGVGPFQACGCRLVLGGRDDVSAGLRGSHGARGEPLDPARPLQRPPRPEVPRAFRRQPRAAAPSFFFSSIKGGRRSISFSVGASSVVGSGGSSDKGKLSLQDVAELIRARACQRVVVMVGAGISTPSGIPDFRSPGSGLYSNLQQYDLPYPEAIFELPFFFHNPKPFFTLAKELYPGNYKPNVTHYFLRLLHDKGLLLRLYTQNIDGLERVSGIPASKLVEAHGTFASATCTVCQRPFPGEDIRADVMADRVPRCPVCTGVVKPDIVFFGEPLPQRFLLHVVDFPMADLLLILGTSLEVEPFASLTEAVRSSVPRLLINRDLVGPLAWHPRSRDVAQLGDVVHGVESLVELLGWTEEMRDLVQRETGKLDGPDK
Briefly: Inhibition of His6-tagged/TEV fused SIRT3 (unknown origin) expressed in Escherichia coli BL21 (DE3) preincubated for 15 mins followed by NAD+ addition and measured after 30 mins by FLucK529Ac based luminescence assay.

Experiment [3] concerns the target T3, NAD-dependent protein deacetylase sirtuin-1 (Homo sapiens, UniProt Q96EB6).
T3 sequence (Q96EB6 whole entry): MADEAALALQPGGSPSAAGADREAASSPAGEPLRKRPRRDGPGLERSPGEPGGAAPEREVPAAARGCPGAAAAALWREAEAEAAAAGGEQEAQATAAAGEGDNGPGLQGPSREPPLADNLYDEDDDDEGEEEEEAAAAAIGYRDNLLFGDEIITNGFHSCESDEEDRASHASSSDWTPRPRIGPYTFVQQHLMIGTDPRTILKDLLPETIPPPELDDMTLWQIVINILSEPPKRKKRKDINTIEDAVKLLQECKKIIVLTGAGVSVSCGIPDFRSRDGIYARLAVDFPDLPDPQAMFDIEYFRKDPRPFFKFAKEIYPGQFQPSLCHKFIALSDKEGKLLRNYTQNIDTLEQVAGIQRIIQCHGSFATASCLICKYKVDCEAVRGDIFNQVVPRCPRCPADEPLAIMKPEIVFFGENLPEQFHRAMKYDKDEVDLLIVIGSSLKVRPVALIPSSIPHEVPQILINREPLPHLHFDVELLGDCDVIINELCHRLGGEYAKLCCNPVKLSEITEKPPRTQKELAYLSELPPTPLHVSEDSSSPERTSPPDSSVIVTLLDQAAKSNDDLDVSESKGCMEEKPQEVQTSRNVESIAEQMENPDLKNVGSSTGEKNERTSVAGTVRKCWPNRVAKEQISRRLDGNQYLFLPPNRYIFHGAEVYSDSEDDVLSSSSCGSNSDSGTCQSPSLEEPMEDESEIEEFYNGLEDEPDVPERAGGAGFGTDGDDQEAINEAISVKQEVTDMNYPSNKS
Description: Inhibition of His6-tagged SIRT1 (unknown origin) expressed in Escherichia coli BL21 (DE3) preincubated for 15 mins followed by NAD+ addition and measured after 30 mins by FLucK529Ac based luminescence assay

The target of experiment [4] is T3, NAD-dependent protein deacetylase sirtuin-1. The source holds these as a separate data set.
Description: Uncompetitive inhibition of His6-tagged SIRT1 (unknown origin) expressed in Escherichia coli BL21 (DE3) assessed as inhibition constant measured every 2 mins for 30 mins in presence of NAD+ and ATP by FLucK549Ac based Michaelis-Menten analysis

As usually defined, the IC50 is the concentration that inhibits the measured activity by half. Higher therefore signals lower potency. Take `CS(=O)(=O)N1CC(C(N)=O)Oc2ccccc21` (configuration not stated): the 50% inhibitory concentration (IC50) in experiment [1], in experiment [2] and in experiment [3] was above 60 µM in each case.

Take `NC(=O)C1CN(C(=O)c2ccc(CCl)cc2)c2ccccc2O1` (configuration not stated): the values for the IC50 in experiment [1], in experiment [2] and in experiment [3] were above 60 µM, above 60 µM and 48.8 µM, respectively.

Regarding `O=C(O)C1CN(Cc2ccccc2)c2ccccc2O1` (configuration not stated), the IC50 in experiment [1], in experiment [2] and in experiment [3] was above 60 µM in each case.

As to `CCOC(=O)C1CN(Cc2ccccc2)c2ccccc2O1` (configuration not stated), the IC50 in experiment [1], in experiment [2] and in experiment [3] was above 60 µM in each case.

Take `CNC(=O)C1CN(Cc2ccccc2)c2ccccc2O1` (configuration not stated): the half-maximal inhibitory concentration (IC50) in experiment [1], in experiment [2] and in experiment [3] was above 60 µM each time.

On to `Cc1ccc(S(=O)(=O)N2CC(C(N)=O)Oc3ccccc32)cc1` (configuration not stated), for which the half-inhibitory concentration (IC50) in experiment [1], in experiment [2] and in experiment [3] was above 60 µM each time.

`CC(C)(C)OC(=O)CN1CC(C(N)=O)Oc2ccccc21` (configuration not stated): the concentration for half-maximal inhibition (IC50) in experiment [1], in experiment [2] and in experiment [3] was above 60 µM in each case.

As for `NC(=O)C1CN(C(=O)c2cccnc2)c2ccccc2O1` (configuration not stated), the half-maximal inhibitory concentration (IC50) in experiment [1], in experiment [2] and in experiment [3] was above 60 µM in each case.

`NC(=O)C1CN(S(=O)(=O)c2cccc3ccccc23)c2ccccc2O1` (configuration not stated): the IC50 in experiment [1], in experiment [2] and in experiment [3] was above 60 µM each time.

Take `O=C(C1CN(Cc2ccccc2)c2ccccc2O1)N1CCCCC1` (configuration not stated): the IC50 in experiment [1], in experiment [2] and in experiment [3] was above 60 µM throughout.

Regarding `CN(C)C(=O)C1CN(Cc2ccccc2)c2ccccc2O1` (configuration not stated), the half-inhibitory concentration (IC50) in experiment [1], in experiment [2] and in experiment [3] was above 60 µM throughout.

In the case of `COc1ccc(NC(=O)N2CC(C(N)=O)Oc3ccccc32)cc1` (configuration not stated), the half-maximal inhibitory concentration (IC50) in experiment [1], in experiment [2] and in experiment [3] was above 60 µM each time.

For the compound `N#Cc1cccc(NC(=O)N2CC(C(N)=O)Oc3ccccc32)c1` (configuration not stated), the IC50 in experiment [1], in experiment [2] and in experiment [3] was above 60 µM throughout.

With `Cc1ccc(NC(=O)N2CC(C(N)=O)Oc3ccccc32)cc1` (configuration not stated), the IC50 in experiment [1], in experiment [2] and in experiment [3] was above 60 µM in each case.

Usually Ki stands for the dissociation constant of the complex between target and ligand, obtained from inhibition or displacement. High values mean lower affinity, low ones higher affinity. Regarding `N#Cc1ccccc1CN1CC(C(N)=O)Oc2ccccc21` (stereo in doubt; 4.27), the half-maximal inhibitory concentration (IC50) in experiment [1] is 37.7 µM; in experiment [2], above 60 µM; in experiment [3], 0.22 µM. For the same compound, the Ki in experiment [4] is 0.4 µM.

For `N#Cc1ccccc1CN1CC(C(N)=O)Oc2ccccc21` (stereo in doubt; form 1), the IC50 in experiment [1] is 47.3 µM; in experiment [2], above 60 µM; in experiment [3] it was 47.3 µM.

Consider `N#Cc1ccccc1CN1CC(C(N)=O)Oc2ccccc21` (stereo in doubt; form 2), for which the figures for the 50% inhibitory concentration (IC50) in experiment [1], in experiment [2] and in experiment [3] were 34 µM, above 60 µM and 0.11 µM, respectively.
